The values below are quoted from earlier work in Sander's compilation of Henry's law constants (doi:10.1063/1.1564818).

Molecules are shown by their SMILES.

The nature of this data set: Henry solubility constant Hcp at 298.15 K (mol/(m3 Pa)). To be noted: reference: Fernández-Prini et al. (2003); cited value.
As for `[Ar]` [argon], the “Henry solubility constant Hcp” value is 1.4e-05. Regarding `O=C=O` [carbon dioxide], the “Henry solubility constant Hcp” value was 0.00033. Take `[C-]#[O+]` [carbon monoxide]: the “Henry solubility constant Hcp” value is 9.7e-06. As for `[He]` [helium], the “Henry solubility constant Hcp” value was 3.9e-06.

For the molecule `[HH]` [hydrogen], the “Henry solubility constant Hcp” value was 7.8e-06. `[Kr]` [krypton]: the “Henry solubility constant Hcp” value was 2.5e-05. In the case of `[Ne]` [neon], the “Henry solubility constant Hcp” value is 4.5e-06. Turning to `O=O` [oxygen], the “Henry solubility constant Hcp” value was 1.3e-05.

For `FS(F)(F)(F)(F)F` [sulfur hexafluoride], the “Henry solubility constant Hcp” value is 2.5e-06.

For `[Xe]` [xenon], the “Henry solubility constant Hcp” value is 4.4e-05.
